Results taken from patent US10786481B2, “Hydroquinone compounds, preparation methods therefor, and use in anti-tumor or immunomodulation therapy” (Biomedical Analysis Center, Academy of Military Medical …, priority 2016, dated 2020).
Like-named read-outs stand apart in the source and are kept apart here.

Legend:
[1] = tested on: monocytes; conditions: via inhibition of ROS generation; Cell Research 2013, 23:898-914; cited from earlier work
[2] = Drug metabolism tests of BHA in vivo; parameters: species or system mice; conditions: for half-life: mouse, plasma
[3] = tested on: humanized embryonic nephrocyte (HEK293 cell); assay: Cytotoxicity, MTS method, HEK293 cell; format: cell-based; conditions: Homo sapiens
Description: (§1) The toxicity of compounds is detected with MTS method in the immortalized mice bone marrowmacrophages (IBMM), mice embryonic fibroblast (NIH3t3) and humanized embryonic nephrocyte.

[4] = tested on: macrophages M2; assay: Polarization of macrophages M2; conditions: FIG. 1
[5] = Acute toxicity in mice, up-down method; format: in vivo; conditions: mouse, in vivo
Method: (§2) Detecting the acute toxicity of some of the compounds by using up-down method. Intragastric administrating a drug to the mice of 20˜22 g; lyase is corn oil, fasting for 12 h before administration, with free drinking.

[6] = tested on: lung cancer in K-rasLA2 model mice; conditions: fodder of 0.75% BHA; Cell Research 2013, 23:898-914; cited from earlier work
[7] = tested on: mice; assay: Toxicology experiment of BHA in mice; format: in vivo
[8] = tested on: mice embryonic fibroblast (NIH3t3); assay: Cytotoxicity, MTS method, NIH3T3 cell; format: cell-based; conditions: Mus musculus
Description: as §1

[9] = tested on: Her2 breast cancer; assay: Mice model with Her2 breast cancer; format: in vivo
[10] = tested on: immortalized mice bone marrowmacrophages (IBMM); assay: Cytotoxicity, MTS method, IBMM cell; format: cell-based; conditions: Mus musculus, Bone marrow macrophage, read-out: IC50(mM) IBMM cell
Description: as §1

[11] = Release experiment of target compound in human plasma; conditions: 37° C., 5 min to 9 h
Method: Mobile phase: gradient elution; A: water; B: methanol;
Chromatographic column: CAPCEL PAK MF PH-1;
Detecting instrument: TQ-S; ion source: APCI; ion detection mode: MRM;
Dissolving the target compound with DMSO, then diluting to 5 μg/mL with the normal saline of 0.9%. The human blank plasma after subpackage is preserved at −70° C., unfreezing in a refrigerator at 4° C. when used. Take 20 μL of the blank plasma, adding 20 μL of the target compound solution as above formulated, vortexing for 15 s, and left it in the water bath at 37° C. […] Take the supernatant and inject 10 μL for detection.

[12] = tested on: mice; assay: Acute toxicity in mice, up-down method; format: in vivo; conditions: mice, intragastric
Method: as §2

[13] = po, mice, intragastric, corn oil, up-down method, unit inferred
[14] = HEK293, MTS method, read-out: IC50(mM) HEK293 cell
[15] = NIH3T3, MTS method, read-out: IC50(mM) NIH3T3 cell

Compound | differentiation of monocytes toward M2 macrophages [1] | LD50 [5, 13] [mg/kg] | release of BHA in human plasma [11] | IC50 [3, 14] [mM] | acute toxicity compared with BHA [12] | IC50 [8, 15] [mM] | IC50 ([10]; MTS method) [mM] | also measured
COc1cc(C(C)=O)ccc1O [Apocynin] | inhibit differentiation of monocytes toward M2 macrophages |  |  |  |  |  |  | 
COc1ccc(O)c(C(C)(C)C)c1 [BHA, 2-tert-butyl-4-methoxyphenol] | inhibit differentiation of monocytes toward M2 macrophages | 1100 |  |  |  |  |  | half-life ([2]; FIG. 2A and B, read-out: half-life of BHA in vivo): 30 to 60 min; half-life ([2]; mice, oral, read-out: T112 (half-life)): 20 min; time to peak ([2]; oral): 5 min; IC50 ([3]; HEK293, read-out: IC50(mM) HEK293 cell): 0.325 mM; polarization effect of macrophages M2 [4]: inhibits the polarization effect of macrophages M2; LD50 ([5]; oral, acute toxicity in mice, as restated): 1100 mg/kg; generation of lung cancer [6]: completely inhibited; toxic signs ([7]; 600 mg/kg, recover after half an hour): central effect of partially “hangover” state; mortality ([7]; 1100 mg/kg): Half of the mice with 1100 mg/kg are caused to die; time until symptoms of the toxic reaction disappear in survival mice ([7]; 1100 mg/kg): 30 to 60 min; toxic effect, long term dosing ([7]; low dose, long term dosed for two years): toxic effect is not seen; IC50 ([8]; NIH3T3, read-out: IC50(mM) NIH3T3 cell): 0.267 mM; anti-tumor effects ([9]; HER2 mice model, 50-1000 mg/kg BW dosed in portions): obvious anti-tumor effects; metastasis in head ([9]; Her2 tumor model with the breast cancer, FIG. 1A): not observed; IC50 [10]: 0.218 mM
CC(=O)N[C@@H](CS)C(=O)O [NAC] | inhibit differentiation of monocytes toward M2 macrophages |  |  |  |  |  |  | 
CC1(C)CCCC(C)(C)N1[O] [TEMPO] | inhibit differentiation of monocytes toward M2 macrophages |  |  |  |  |  |  | 
COc1ccc(OC(C)=O)c(C(C)(C)C)c1 [XH2006, 2-tert-butyl-4-methoxyphenol acetate] |  | > 1200 | releases BHA | 0.118 | lower than that of 2-tert-butyl-4-methoxyphenol-oxyl (BHA) | 0.021 | 0.443 | 
COc1ccc(OC(=O)c2cccnc2)c(C(C)(C)C)c1 [XH2010, 2-tert-butyl-4-methoxyphenol nicotinate] |  | > 1200 | releases BHA | 0.207 | lower than that of 2-tert-butyl-4-methoxyphenol-oxyl (BHA) | 0.186 | 0.175 | 
COc1ccc(OC(=O)c2ccncc2)c(C(C)(C)C)c1 [XH2011, 2-tert-butyl-4-methoxyphenol isonicotinate] |  | > 1300 | releases BHA | 0.311 | lower than that of 2-tert-butyl-4-methoxyphenol-oxyl (BHA) | 0.0326 | 0.119 | 
COc1ccc(OC(=O)C2CCCC2)c(C(C)(C)C)c1 [XH2039-6, (2-tert-butyl-4-methoxyphenol) cyclopentanecarboxylate] |  |  | releases BHA | 0.136 |  | 0.229 | 0.171 | 
COc1ccc(OC(=O)CC2CC2)c(C(C)(C)C)c1 [XH2040-2, (2-tert-butyl-4-methoxyphenol) cyclopropylacetate] |  |  | releases BHA | 0.237 |  | 0.232 | 0.202 | 
CCCCCCCC(=O)Oc1ccc(OC)cc1C(C)(C)C [XH2040-4, (2-tert-butyl-4-methoxyphenol) octanoate] |  |  | releases BHA | 0.283 |  | 0.366 | 0.198 | 
COc1ccc(OC(=O)Cc2cc(F)c(F)cc2F)c(C(C)(C)C)c1 [XH2041-2, (2-tert-butyl-4-methoxyphenol) 2,4,5-trifluorophenylacetate] |  |  | releases BHA | 0.349 |  | 0.26 | 0.156 | 
COc1ccc(OC(=O)CC(F)(F)F)c(C(C)(C)C)c1 [XH2044-1, (2-tert-butyl-4-methoxyphenol) 3,3,3-trifluoropropionate] |  |  | releases BHA | 0.206 |  | 0.353 | > 0.7 | 
(2-tert-butyl-4-methoxyphenol) morpholin-4-yl acetate [XH2044-2] |  |  | releases BHA |  | lower than that of 2-tert-butyl-4-methoxyphenol-oxyl (BHA) |  |  | LD50 ([12]; corn oil, up-down method, unit inferred): > 1300 mg/kg
